Results taken from patent publication EP0331184A2, “Peptide equivalents of non-peptides and methods of design therefor” (THE BOARD OF TRUSTEES OF THE UNIVERSITY OF ALABAMA FOR ITS …, priority 1988, dated 1989).

Tested on: dog kidney Na⁺K⁺ATPase
Assay: ³H-ouabain radioreceptor assay
Type: binding
Conditions: 10⁻⁴M concentrations
Procedure: The linked-enzyme, spectrophotometric assay measuring hydrolysis of ATP was performed as described in Example 1. The ³H-ouabain radioreceptor assay was performed in 0.5 ml of 50 mM Tris HCl (pH 7.4) containing 0.5 mM EDTA, 4 mM MgSO₄, 80 mM NaCl, 5mM ATP, 7.5 ug of dog kidney Na⁺K⁺ATPase (Sigma), 7.8 nCi of [21, 22-³H]-ouabain (specific activity = 15.6 Ci/mmol; Amersham), and 0.1% gelatin. Test samples were incubated for 2 hr at 37°C; ATP and ³H-ouabain were absent during the first hour but present during the second hour. The glycopeptide 1-39 used in these experiments was isolated to homogeneity as described in Fig. 6; eOLP refers to the partially purified, endogenous ouabain-like substance described in the text, and its amounts are expressed as ul of acetonitrile/TFA. Samples of these preparations, both in acetonitrile/0.1% trifluoroacetic acid, were evaporated under a stream of nitrogen gas and redissolved in 0.1% gelatin in preparation for assay. ³H-ouabain bound to Na⁺K⁺ATPase was recovered on Whatman GF/F glass microfiber filters using vacuum filtration. The filters had been soaked in 0.3% aqueous polyethylenimine for 2 hr immediately before filtration. The filters were added to scintillation fluid in vials and counted in a liquid scintillation spectrometer. […]

displacing activity in the ³H-ouabain radioreceptor assay	Substance
no displacing activity	lysine vasopressin
no displacing activity	oxytocin
